According to patent US6909014B2, “Intermediates for the synthesis of ether compounds” (Esperion Therapeutics, Inc., priority 1999, dated 2005):

Experiments:
[1] = system: chow fed obese female Zucker rats; experiment: Experiments B, C, D, E: serum lipids, glucose, insulin, body and liver weight in obese female Zucker rats, 14 days; format: in vivo, rat
Method: In a number of different experiments, illustrative compounds of the invention and troglitazone were administered daily at various doses to 10-week old chow fed obese female Zucker rats for 14 days in the morning by oral gavage in 1.5% carboxymethylcellulose/0.2% Tween-20 (dosing vehicle). Animals were weighed daily. Animals were allowed free access to rodent chow and water throughout the study. Blood glucose was determined after a 6-hour fast in the afternoon without anesthesia from a tail vein. Serum was also prepared from a blood sample subsequently obtained from the orbital venous plexus (with O2/CO2 anesthesia) prior to and after one week treatment and used lipid and insulin determinations. At two weeks, blood glucose was again determined after a 6-hour fast without anesthesia from a tail vein. Soon thereafter, animals were sacrificed by CO2 inhalation in the evening and cardiac blood serum was collected and assessed for various lipids and insulin. Body weight was determined daily prior to dosing and at the time of euthanasia.

[2] = system: chow fed male Sprague-Dawley rats; experiment: Serum lipids, lipoproteins, apolipoproteins and weight gain in chow fed male Sprague-Dawley rats after seven daily oral doses; format: in vivo, rat; conditions: 100 mg/kg, seven days, vs vehicle
Method: Illustrative compounds of the invention were administered daily at a dose of 100 mg/kg to chow fed male Sprague-Dawley rats for seven days in the morning by oral gavage in 1.5% carboxymethylcellulose/0.2% Tween-20 (dosing vehicle). Animals were weighed daily. Animals were allowed free access to rodent chow and water throughout the study. After the seventh dose, animals were sacrificed in the evening and blood serum was assayed for lipoprotein cholesterol profiles, serum triglycerides, total cholesterol VLDL, LDL, and HDL cholesterol, and the ratio of HDL cholesterol to that of VLDL plus LDL cholesterol, apolipoproteins A-I, C-II, C-III, and E by immunoelectrophoresis, and percent weight gain.
The five compounds were tested in two separate experiments. In each experiment, the experimental data were normalized against a control group of rats which received the dosing vehicle alone.

[3] = system: LDL receptor deficient mice; experiment: Lipoprotein cholesterol profile in LDL receptor-deficient mice; format: in vivo; conditions: 300 mg/kg/day, one week; 4 chow-fed female mice (FIG. 17)
Source text: The effect of Compound A on LDL levels in a murine model of homozygous familial hypercholesterolemia (Ishibashi et al., 1993, J. Clin. Invest. 92:883-893; Ishibashi et al., 1994, J. Clin. Invest. 93:1885-1893) was studied. LDL receptor-deficient mice have elevated LDL cholesterol relative to wild type mice when fed a chow diet. When fed cholesterol-enriched diets, these mice develop atherosclerosis.

female obese Zucker rats = experiment: Experiment A: serum lipids, glucose, non-esterified fatty acids and weight gain in obese female Zucker rats, seven days; format: in vivo, rat; conditions: Compound A 86 mg/kg, one week
Method: Dosing vehicle, Compound A (86 mg/kg of body weight) or troglitazone (120 mg/kg of body weight) was administered to eight week old female obese Zucker rats daily for seven days in the morning by oral gavage in 1.5% carboxymethylcellulose/0.2% Tween-20. Troglitazone was obtained commercially. Finely crushed tablets were suspended in vehicle for dosing. Orbital blood samples were obtained following a six-hour fast prior to the initial dose and also following the seventh dose.
Blood serum was assayed for total cholesterol and triglycerides (FIG. 5), lipoprotein cholesterol profiles (FIG. 6), VLDL plus LDL cholesterol combined (also referred to as apo B containing lipoprotein cholesterol or non-HDL cholesterol), HDL cholesterol, and the ratio of HDL cholesterol to that of VLDL plus LDL cholesterol (FIG. 7), serum glucose, and non-esterified fatty acids (FIG. 8), and percent weight gain (FIG. 9). […] In particular, Compound A caused a marked elevation in HDL cholesterol after one week of treatment. Using the serum total cholesterol values (FIG. 5A) and the lipoprotein cholesterol distribution (FIG. 6), the amount of cholesterol associated with non-HDL (i.e., VLDL plus LDL) and HDL were determined (FIG. 7). […] In contrast, troglitazone reduced non-HDL and HDL cholesterol by 67% and 4%, respectively.

[4] = system: hepatocytes isolated from a male Sprague-Dawley rat; experiment: Synthesis of non-saponified and saponified lipids (14C-acetate incorporation) in hepatocytes; format: cell-based; conditions: 100 μM, 14C-acetate labeling 2 hr (FIG. 18)
Method: A male Sprague-Dawley rat was anesthetized by administration of sodium pentobarbitol by intraparitoneal injection at 50 mg/kg. In situ perfusion of the liver was performed as follows. […] To digest the liver, DSC solution (6.7 mM KCl, 143 mM NaCl, 9.2 mM Na HEPES, 5 mM CaCl2-2H2O, 1.7 mM Fructose, 0.029 mM Phenol red, 0.2% BSA, 100 U/ml collagenase Type I, 93 U/ml Hyaluronidase, 160 BAEE/ml trypsin inhibitor, pH 7.5) was perfused through the liver at a flow rate of 30 ml/min for 6 minutes at a temperature of 37° C. After digestion, cells were dispersed in a solution of DMEM-(DMEM containing 2 mM GlutMax-1, 0.2% BSA, 5% FBS, 12 nM insulin, 1.2 μM hydrocortisone) to stop the digestion process. The crude cell suspension was filtered through three layers of stainless steel mesh with pore sizes of 250, 106, and 75 μm respectively. Filtered cells were centrifuged at 50×g for two minutes and the supernatant discarded. The resulting cell pellet was resuspended in DMEM and centrifuged again. This final cell pellet was resuspended in DMEM+HS solution (DMEM containing 2 mM GlutMax-1, 20 nM delta-aminolevulinic acid, 17.4 mM MEM non-essential amino acids, 20% FBS, 12 nM insulin, 1.2 μM hydrocortisone) and plated to form monolayer cultures at a density of 100×10^3 cells/cm^2 on collagen coated culture dishes. […]

Structure (SMILES): CC(C)(CO)CCCCOCCCCC(C)(C)CO [Compound A, 6-(6-hydroxy-5,5-dimethylhexyloxy)-2,2-dimethyl-hexan-1-ol]
- Body Weight Gain (% of Pre-treatment) ([1]; Experiment C, 1 mg/kg/day, 14 days, control +16.7): +16.7 % of Pre-treatment
- Triglycerides (% of Pre-treatment) ([1]; Experiment C, 1 mg/kg/day, 14 days, control −11.2): −8.8 % of Pre-treatment
- Body Weight Gain (% of Pre-treatment) ([1]; Experiment C, 3 mg/kg/day, 14 days, control +16.7): +17.5 % of Pre-treatment
- Triglycerides (% of Pre-treatment) ([1]; Experiment C, 3 mg/kg/day, 14 days, control −11.2): −24.6 % of Pre-treatment
- HDL-Cholesterol (% of Pretreatment) ([1]; Experiment C, 3 mg/kg/day, 14 days, control −29.8): −3.7 % of Pretreatment
- Body Weight Gain (% of Pre-treatment) ([1]; Experiment C, 10 mg/kg/day, 14 days, control +16.7): +10.7 % of Pre-treatment
- Triglycerides (% of Pre-treatment) ([1]; Experiment C, 10 mg/kg/day, 14 days, control −11.2): −50.9 % of Pre-treatment
- Body Weight Gain (% of Pre-treatment) ([1]; Experiment C, 30 mg/kg/day, 14 days, control +16.7): +11.3 % of Pre-treatment
- Triglycerides (% of Pre-treatment) ([1]; Experiment C, 30 mg/kg/day, 14 days, control −11.2): −42.0 % of Pre-treatment
- Triglycerides (% of Pre-treatment) ([1]; Experiment C, 100 mg/kg/day, 14 days, control −11.2): −57.0 % of Pre-treatment
- glucose to insulin ratio (in words) ([1]; Experiment C, Compound A 100 mg/kg (FIG. 14)): reduced
- blood glucose (in words) ([1]; Experiment C, Compound A 100 mg/kg, troglitazone 40 mg/kg, fasted rats (FIG. 12)): tendency to lower blood glucose
- reduction of serum triglycerides (in words) ([1]; Experiment C, Compound A 1-100 mg/kg, troglitazone 12, 40, 120 mg/kg (FIG. 10)): reduced serum triglyceride levels at all doses
- glucose to insulin ratio (in words) ([1]; Experiment C, Compound A 1 and 3 mg/kg, two weeks (FIG. 14)): declined by approximately ⅓ to ½
- weekly percent weight gain (in words) ([1]; Experiment C, Compound A 10, 30 and 100 mg/kg, after one and two weeks (FIG. 15)): markedly reduced
- glucose to insulin ratio (in words) ([1]; Experiment C, Compound A 10 and 30 mg/kg (FIG. 14)): sustained at pretreatment levels
- serum insulin (in words) ([1]; Experiment C, higher Compound A doses (FIG. 13)): sharp rise in serum insulin was largely curtailed or minimized
- Triglycerides (% of Pre-treatment) ([1]; Experiment D, 10 mg/kg/day, 14 days, control +1.6): −11.1 % of Pre-treatment
- Body Weight Gain (% of Pre-treatment) ([1]; Experiment D, 10 mg/kg/day, 14 days, control +10.6): +2.2 % of Pre-treatment
- Triglycerides (% of Pre-treatment) ([1]; Experiment D, 100 mg/kg/day, 14 days, control +1.6): −62.9 % of Pre-treatment
- Body Weight Gain (% of Pre-treatment) ([1]; Experiment D, 100 mg/kg/day, 14 days, control +10.6): +4.5 % of Pre-treatment
- Non HDL-Cholesterol (% of Pretreatment) ([1]; Experiment D, 100 mg/kg/day, 14 days, control +15.2): +7.5 % of Pretreatment
- Triglycerides (% of Pre-treatment) ([1]; Experiment E, 100 mg/kg/day, 14 days, control +12.0): −43.2 % of Pre-treatment
- Body Weight Gain (% of Pre-treatment) ([1]; Experiment E, 100 mg/kg/day, 14 days, control +21.9): +19.1 % of Pre-treatment
- Non HDL-Cholesterol (% of Pretreatment) ([1]; Experiment E, 100 mg/kg/day, 14 days, control −13.1): +7.2 % of Pretreatment
- change in VLDL cholesterol [2]: no change
- HDL (in words) [3]: HDL elevation in all treated mice
- LDL cholesterol (in words) [3]: rapid and significant reduction in LDL cholesterol
- serum glucose (in words) (female obese Zucker rats): did not induce a hypoglycemic state

Structure (SMILES): CC(C)(CCCCOCCCCC(C)(C)OP(=O)(O)O)OP(=O)([O-])[O-].[Na+].[Na+] [Compound B, phosphoric acid mono-(1,1-dimethyl-5-(5-methyl-5-phosphonooxy-hexyloxy)-pentyl) ester sodium salt]
- Body Weight Gain (% of Pre-treatment) ([1]; Experiment B, 100 mg/kg/day, 14 days, control +10.7): +12.0 % of Pre-treatment
- Triglycerides (% of Pre-treatment) ([1]; Experiment B, 100 mg/kg/day, 14 days, control −31.9): +24.6 % of Pre-treatment

Structure (SMILES): CC(C)(CCCOCCCC(C)(C)OP(=O)(OCc1ccccc1)OCc1ccccc1)OP(=O)(OCc1ccccc1)OCc1ccccc1 [Compound E, phosphoric acid dibenzyl ester 4-(4-(bis-benzyloxy-phosphoryloxy)-4-methyl-pentyloxy)-1,1-dimethyl-butyl ester]
- rate of saponified fatty acid synthesis (in words) [4]: reduced the rates of saponified fatty acid synthesis

Structure (SMILES): CC(C)(O)CCCCOCCCCC(C)(C)O [Compound F, 6-(5-hydroxy-5-methyl-hexyloxy)-2-methyl-hexan-2-ol]
- rate of saponified fatty acid synthesis (in words) [4]: reduced the rates of saponified fatty acid synthesis
